This note sets out measurements from patent US6552066B1, “Protein tyrosine kinase inhibitors for treating osteoarthritis” (priority 1995, dated 2003).

The test system of experiment [1] is aggrecanase activity in bovine cartilage explants. Description: Bovine cartilage explant assay without added plasminogen (IL-1-induced aggrecanase degradation). Type of experiment: cell-based. The note with it: no added plasminogen. The text has this:
The assay described in Example 2 can be carried out with and without added plasminogen. With plasminogen, the active forms of the metalloproteinases (MMPs) and plasmin were generated. It is believed that MMPs, “aggrecanase” and plasmin degraded the cartilage explant in this assay. […] Therefore, in the absence of plasminogen, cartilage degradation occurred primarily as a result of “aggrecanase” activity.

Experiment [2] concerns IL-1-stimulated release of radiolabelled proteoglycan from bovine cartilage explants. Description: Bovine cartilage explant assay with rhIL-1α and plasminogen (35S-GAG release). Type of experiment: cell-based. To be noted: Bos taurus, rhIL-1α 5 ng/mL, plasminogen 0.4 μM. The text has this:
A tissue culture assay was used to measure the ability of the compounds of the present invention to slow the degradation of the extracellular matrix by metalloproteinases. This assay measured the amount of ^35S-glycosaminoglycan (^35S-GAG) released from labeled bovine cartilage explants.
Knee joints from a 1 to 3 week old calf were obtained immediately after sacrifice from the Abattoir and then transported on ice. The intact joints were washed well with tap water and soaked in 50% (v/v) Povidine iodine solution, obtained from Burre National, Inc., Baltimore, Md. All subsequent steps were performed in a laminar flow tissue culture hood using standard sterile technique. The joint was immobilized in a shank holder and the joint capsule was cut open to expose the articular cartilage. […]
Individual disks obtained were transferred to a tissue culture flask containing about 100 mL fresh media. […] When ready to label, the old media was replaced with 50 mL fresh media containing about 1.2 mCi ^35S-Sodium Sulfate. […]
The TC plates were then placed in the incubator and cultured for 3-4 days (initial incubation with rhIL-1α alpha takes at least 3 days to stimulate endogenous metalloproteinases). A 50 μL aliquot of media from each TC plate was saved and counted. […]

Experiment [3] has as its system aggrecanase cleavage of aggrecan (230K fragment). In words: Aggrecanase neoepitope in IL-1-stimulated chondrocytes, BC-3 antibody immunoblot. Type of experiment: cell-based, bovine. Here is the method:
Primary bovine articular chondrocytes from calf adio-carpal joints were isolated and cultured as above in Example 1, up to and including the addition of the following protein kinase inhibitors: 1) Protein kinase A (PKA) inhibitors; 0.5 μM H88 (Seikagaku Corp.), 0.5 μM H89 (Seikagaku Corp.); 2) Protein kinase C (PKC) inhibitors; 0.5 μM Calphostin C (Calbiochem), 1.0 μM Chelerythrine (Calbiochem); 3) CA^2+/Calmodulin Kinase II inhibitor; 5.0 μM KN93 (Seikagaku Corp.); 4) Protein tyrosine kinase (PTK) inhibitors; 50 μM Genistein (Calbiochem), 10 μM Herbimycin A (Calbiochem). After the 24 hour IL-1α incubation, the media of each sample was measured, and collected on ice in the presence of the protease inhibitors EGTA (5 mM), Pefaloc (1 mM), pepstatin (1 μg/ml), and NEM (5 mM). Media were concentrated approximately 40 fold using a Centriprep-10 ultrafiltration device (Amicon).
Proteoglycans contained within the media were deglycosylated by incubations with chondroitinase ABC, keratinase, and keratinase II following the procedure of Sandy et al. J Biol Chem (1991) 266:8683-8685 and Sandy et al. J. Clin Invest (1992) 89:1512-1516. Samples of deglycosylated media were subjected to 4-15% gradient SDS-PAGE and transferred to nitrocellulose membranes (2 ml-worth and 6 ml-worth of media were used for 2-B-6 and BC-3 immunoblotting, respectively.) The membranes were blocked with 1% nonfat dry milk and 1% BSA, and then incubated in either the BC-3 or 2-B-6 primary monoclonal antibody for 1 hour. The 2-B-6 antibody detects chondroitin sulfate stubs on chondroitinase-treated proteoglycans (both intact and degradation products. BC-3 antibody detects “ARGSV . . . ,” the new N-terminus (“neoepitope”) resulting from cleavage of aggrecan interglobular domain at Glu^373/ALA^374 by aggrecanase. It is of note to mention that the BC-3 and 2-B-6 antibodies were of low sensitivity. Following 3 washes, membranes were incubated in either alkaline phosphatase-conjugated goat anti-mouse (for the 2-B-6 blot) or biotinylated goat anti-mouse (for the BC-3 blot); followed by alkaline phosphatase-conjugated streptavidin/biotin complex). After washing 3 times, immunoreactive proteins were detected using NBT/BCIP (Sigma) colorimetric substrate.

`N#CC(C#N)=Cc1ccc([N+](=O)[O-])c(O)c1` [Tyrphostin AG 126]: in experiment [1] (50 μM), the “inhibition of release of 35S-labelled proteoglycan” value is “no effect”.
Same read-out and setting: the same measure for `N#CC(C#N)=Cc1cc(O)c(O)c(O)c1` [Tyrphostin AG 82]: 31%.
In the case of `CO[C@H]1[C@@H](OC)C[C@H](C)[C@@H](OC)C2=CC(=O)C=C(NC(=O)/C(C)=C/C=C\[C@H](OC)[C@@H](OC(N)=O)/C(C)=C/[C@@H]1C)C2=O` [Herbimycin A], the inhibition (usually the relative decrease from the control value, in per cent) at 2 µM in experiment [2] was roughly 70%. Moreover, the inhibition at 0.25 µM in experiment [1] (Bos taurus, 0.25 μM, read-out: inhibition of release of 35S-labelled proteoglycan) worked out at 55%. Also, in experiment [1] (Bos taurus, 0.5 μM, read-out: inhibition of release of 35S-labelled proteoglycan), the inhibition at 0.5 µM amounted to 63%. Moreover, in experiment [1] (Bos taurus, 1 μM, read-out: inhibition of release of 35S-labelled proteoglycan), the inhibition at 1 µM stood at 78%. The “BC-3 immunoreactive band at approximately 230K (aggrecanase-mediated fragment)” value in experiment [3] (10 μM) is reported as “not present”.
As for `O=c1c(-c2ccc(O)cc2)coc2cc(O)cc(O)c12` [Genistein], the inhibition at 50 µM in experiment [1] (Bos taurus, 50 μM, read-out: inhibition of release of 35S-labelled proteoglycan) stood at 37%. Also, in experiment [3] (50 μM), the “BC-3 immunoreactive band at approximately 230K (aggrecanase-mediated fragment)” value is listed as “not present”.
